From patent US8877261B2, “Anti-redness active agent and cosmetic compositions comprising same” (Laboratoires Expanscience, priority 2011, dated 2014)
Marks after values point to notes of the source that are not given here.

Tests used:
interleukin-8 (IL8) = assay: Release of IL8 by keratinocytes induced by PMA (ELISA); type: cell-based, human; settings: dexamethasone 10^−7 M, ARG 0.2% + LUP 0.02%
Description: Human keratinocytes (NCTC 2544 cell line) were preincubated for 24 hours with the arabinogalactan (ARG)/lupin peptides (LUP) active agents at concentrations of 0.2%/0.02% or with the reference molecule, dexamethasone.
Inflammation was then induced by treatment with PMA for 24 hours, always in the presence of the active agents or the reference molecule.
At the end of incubation, the quantities of interleukin-8 (IL8) present in the culture supernatants were measured by ELISA.
The significance of the results was verified by a single-factor analysis of variance followed by a Tukey's test.
The percentage of inhibition is calculated according to the following formula: [(stimulated PMA)−(active treatment)/(stimulated PMA)]*100 Results (Table 10)

MMP9 = assay: Gene expression of MMP9 in keratinocytes induced by PMA (real-time PCR); type: cell-based, human; settings: NHEK, total 40 hours
Description: The effect of the active agents was sought in a basal condition (to study MMP2) or in a preventive manner on a cell layer having been subjected to inflammatory stress induced by PMA (for MMP9).
Normal human epidermal keratinocytes (NHEK) were preincubated for 24 hours in the presence of the arabinogalactan (ARG)/lupin peptides (LUP) active agents at concentrations of 0.2%/0.02%. PMA was then added for a total treatment period of 40 hours.
(§1) At the end of the treatment, the culture supernatants were removed and total RNA was extracted, analyzed and assayed. The neo-synthesized cDNA relating to the genes of interest (MMP2, MMP9) or to the reference genes were amplified selectively by iQ5 real-time PCR (Biorad) using SybrGreen technology.
(§2) By calculating ΔCt (Ctgene of interest−Ctreference gene) and ΔΔCt (ΔCtcontrol−ΔCttreated) the relative quantity of the gene of interest was measured: RQ=(1+E)^ΔΔCt; when E (effectiveness) is equal to 1, then RQ=2^ΔΔCt.
The significance of the results was verified for the ΔCt values by a single-factor analysis of variance followed by a Dunnett's test (for MMP2) or a Tukey's test (for MMP9).
The percentage of inhibition is thus calculated for MMP9: [(RQ(PMA stimulated)−RQ(active treatment))/RQ(PMA stimulated)]*100 Results

[1] = tested on: Normal human dermal microvascular endothelial cells; assay: Proliferation of endothelial cells in the presence of VEGF (PNPP viability); type: cell-based; settings: for T24 h - %/control (without VEGF) T0 / Percentage of inhibition 24 h (proliferation induced by VEGF): 24 hours; for T24 h - %/control (without VEGF) T0 / T48 h - %/control (without VEGF) T0: in the presence of VEGF, PNPP signal, mean±standard deviation; for T24 h - %/control (without VEGF) T0 / T48 h - %/control (without VEGF) T0 / Percentage of inhibition 24 h (proliferation induced by VEGF) / Percentage of inhibition 48 h (proliferation induced by VEGF): ARG 0.2%, LUP 0.02%; for T48 h - %/control (without VEGF) T0 / Percentage of inhibition 48 h (proliferation induced by VEGF): 48 hours; for stimulation of the growth of endothelial cells in relation to control cells: VEGF, p<0.01; for Percentage of inhibition 24 h (proliferation induced by VEGF) / Percentage of inhibition 48 h (proliferation induced by VEGF): alone or in combination
Description: Normal human dermal microvascular endothelial cells were incubated for 24 or 48 hours in the absence (control) or in the presence of the arabinogalactan (ARG)/lupin peptides (LUP) active agents at concentrations of 0.2%/0.02% alone or in combination and in the presence of vascular endothelial growth factor (VEGF), the reference activator. At the end of incubation, the viability of the cells was evaluated by a spectrophotometric method: P-nitrophenyl phosphate (PNPP) is transformed into p-nitrophenol by phosphatases of viable cells and the absorbance at 405 nm of p-nitrophenol is directly proportional to the number of viable cells.
The results are expressed as the percentage of the “PNPP” signal of the control without VEGF at TO (mean±standard deviation).
The statistical significance of the differences between the “VEGF stimulated cells” and “VEGF+active agents” conditions was evaluated by a single-factor analysis of variance followed by a Holm-Sidak test.
The percentage of inhibition of proliferation is calculated according to the following equation: [(active treatment)−(VEGF stimulated)/(control without VEGF)−(VEGF stim)]*100 Results

kallikrein-5 (KLK5) = assay: Gene expression of kallikrein-5 (KLK5) induced by calcitriol in keratinocytes (real-time PCR); type: cell-based, human
Description: (§3) Normal human epidermal keratinocytes (NHEK) were cultured in differentiation culture medium supplemented with Ca^++. […] At the end of the treatment, the culture supernatants were removed and total RNA was extracted, analyzed and assayed. The neo-synthesized cDNA relating to the genes of interest (LL37 and KLK5) or to the reference genes were amplified selectively by iQ5 real-time PCR (Biorad) using SybrGreen technology. […] By calculating ΔCt (Ctgene of interest−Ctreference gene) and ΔΔCt (ΔCtcontrol−ΔCttreated) the relative quantity of the gene of interest was measured: […] The significance of the results was verified for the ΔCt values by a single-factor analysis of variance followed by a Tukey's test. The percentage of inhibition of the expression of LL37 and KLK5 is thus calculated: [(RQ(stim calcitriol)−RQ(active treatment))/RQ(stim calcitriol)]*100 Results

cathelicidin (LL37) = assay: Gene expression of cathelicidin (LL37) induced by calcitriol in keratinocytes (real-time PCR); type: cell-based, human; settings: for Mean ΔCt (CtLL37 − CtGAPDH) / LL37 expression (relative quantity) / ΔΔCt (LL37) / Percentage of inhibition (LL37 expression): NHEK, 24 hours, ARG 0.2%, LUP 0.02%; for Mean ΔCt (CtLL37 − CtGAPDH) / LL37 expression (relative quantity) / ΔΔCt (LL37): with calcitriol; for Mean ΔCt (CtLL37 − CtGAPDH): alone or in combination; for LL37 expression (relative quantity): control cells = 1.00; for ΔΔCt (LL37): ΔCtcontrol−ΔCttreated; for Percentage of inhibition (LL37 expression): versus calcitriol stimulated control
Description: as §3

VEGF = assay: Gene expression of VEGF by keratinocytes (real-time PCR); type: cell-based, human; settings: NHEK; for Percentage of inhibition (VEGF expression): versus control cells
Description: Normal human epidermal keratinocytes (NHEK) were incubated in the presence of the complex of arabinogalactan (ARG)/lupin peptides (LUP) active agents at concentrations of 0.2%/0.02% alone or in combination.
as §1, with “(VEGF, FGF2, HIF1α, THBS1)” for “(MMP2, MMP9)”
as §2
The significance of the results was verified for the ΔCt values by a single-factor analysis of variance followed by a Dunnett's test.
The percentage of inhibition is calculated for VEGF, FGF2 and HIF1α: [(RQ(control)−RQ(active treatment))/RQ (control)]*100

[2] = NCTC 2544 keratinocytes, 24 hours preincubation then PMA 24 hours, culture supernatants
[3] = calcitriol versus control cells, p<0.001

For `CCCCCCCCCCCCCC(=O)O[C@@H]1[C@@H](C)[C@@]2(O)[C@@H](C=C(CO)C[C@]3(O)C(=O)C(C)=C[C@@H]23)[C@@H]2C(C)(C)[C@]12OC(C)=O` [PMA], which “IL8 (ng/ml)” value (interleukin-8 (IL8); [2]) is on record?
The value was 30.60 ± 1.888 $$$ ng/ml.

What about the “ΔΔCt (MMP9)” value (MMP9; PMA stimulated) of the same compound?
Its value is 6.55.

And the “MMP9 expression (relative quantity)” value (MMP9; PMA stimulated, control cells = 1)?
Its value is 93.70 $$$.

What about the “Mean ΔCt (CtMMP9 − CtGAPDH)” value (MMP9; preincubated 24 hours, then PMA, ARG 0.2% + LUP 0.02%) of the same compound?
Its value is 2.32.

`C[C@@H]1C[C@H]2[C@@H]3CCC4=CC(=O)C=C[C@]4(C)[C@@]3(F)[C@@H](O)C[C@]2(C)[C@@]1(O)C(=O)CO` [Dexamethasone, dexamethasone] was tested. Which inhibition at 0.1 µM (interleukin-8 (IL8); Homo sapiens, NCTC-2544, versus PMA stimulated control, NCTC 2544, read-out: percentage of inhibition of IL8 release induced by PMA) did it give?
Its inhibition at 0.1 µM is 81%.

What about the “IL8” value (interleukin-8 (IL8); [2]) of the same compound?
Its value is 5.967 ± 0.203 ng/mL.

What about the “percentage of inhibition of IL8 release induced by PMA” value (interleukin-8 (IL8); versus PMA stimulated control, NCTC 2544) of the same compound?
Its value is 80.5%.

With VEGF as the compound, how does the “T24 h - %/control (without VEGF) T0” value [1] read?
The value was 213.2 ± 10.8%.

And the “T48 h - %/control (without VEGF) T0” value [1]?
Its value is 262.6 ± 5^ %.

What about the “stimulation of the growth of endothelial cells in relation to control cells” value ([1]; after 24 hours of incubation) of the same compound?
The value was 78.9%.

And the “stimulation of the growth of endothelial cells in relation to control cells” value ([1]; after 48 hours of incubation)?
The value was 159%.

What does the source list for `C=C1/C(=C\C=C2/CCC[C@]3(C)[C@@H]([C@H](C)CCCC(C)(C)O)CC[C@@H]23)C[C@@H](O)C[C@@H]1O` [calcitriol]?
Mean ΔCt (CtKLK5 − CtGAPDH) (kallikrein-5 (KLK5); NHEK, 24 hours, with calcitriol, ARG 0.2% + LUP 0.02%): 2.46; KLK5 expression (relative quantity) (kallikrein-5 (KLK5); NHEK, 24 hours, with calcitriol, control cells = 1.00): 2.49 $$$; ΔΔCt (KLK5) (kallikrein-5 (KLK5); NHEK, 24 hours, with calcitriol, ΔCtcontrol−ΔCttreated): 1.32; stimulation of the gene expression of kallikrein-5 by keratinocytes (kallikrein-5 (KLK5); [3]): 149%; Mean ΔCt (CtLL37 − CtGAPDH) (cathelicidin (LL37)): 11.02; LL37 expression (relative quantity) (cathelicidin (LL37)): 9.12 $$$; ΔΔCt (LL37) (cathelicidin (LL37)): 3.19; stimulation of the gene expression of LL37 by keratinocytes (cathelicidin (LL37); [3]): 812%

Which results are given for arabinogalactan [ARG]?
T24 h - %/control (without VEGF) T0 [1]: 204.7 ± 7.1%; Percentage of inhibition 24 h (proliferation induced by VEGF) [1]: 17.03%; Percentage of inhibition 24 h (proliferation induced by VEGF) ([1]; listed as arabinogalactan): 17%; T48 h - %/control (without VEGF) T0 [1]: 252.9 ± 6^ %; Percentage of inhibition 48 h (proliferation induced by VEGF) [1]: 9.71%; Percentage of inhibition 48 h (proliferation induced by VEGF) ([1]; listed as arabinogalactan): ~10%; Mean ΔCt (CtVEGF − CtGAPDH) (VEGF; ARG 0.2%, LUP 0.02%, alone or in combination): 9.03; VEGF expression (relative quantity) (VEGF; control cells = 1): 0.707 **; ΔΔCt (VEGF) (VEGF; ΔCtcontrol−ΔCttreated): −0.5; Percentage of inhibition (VEGF expression) (VEGF; ARG 0.2%, LUP 0.02%): 29.3%; Percentage of inhibition (VEGF expression) (VEGF; ARG 0.2%, LUP 0.02%, listed as Arabinogalactan): 29%; Mean ΔCt (CtLL37 − CtGAPDH) (cathelicidin (LL37)): 11.31; LL37 expression (relative quantity) (cathelicidin (LL37)): 7.46 *; ΔΔCt (LL37) (cathelicidin (LL37)): 2.9; Percentage of inhibition (LL37 expression) (cathelicidin (LL37)): 18.2%; Percentage of inhibition (LL37 expression) (cathelicidin (LL37); listed as Arabinogalactan): 18%
